Measurements as given in patent US20240199584A1, “KRAS INHIBITORS” (Bristol-Myers Squibb Company, priority 2022, published 2024).
Where two headings read alike, the source gives them in different places.

How the values were obtained:
KRAS G12V = target: T1, KRAS G12V (Homo sapiens, UniProt P01116, G12V); assay: Cellular KRAS:RAF Disruption Assay (NanoBRET), KRAS G12V; type: cell-based; details: HEK293 T cells co-expressing RAF1 and KRAS G12V, 24 hours; read-out: RAS::RAF binding via NanoBRET IC50, KRAS G12V
T1 construct: expressed in transfected cells
T1 sequence (P01116 1-188 isoform P01116-2 G12V): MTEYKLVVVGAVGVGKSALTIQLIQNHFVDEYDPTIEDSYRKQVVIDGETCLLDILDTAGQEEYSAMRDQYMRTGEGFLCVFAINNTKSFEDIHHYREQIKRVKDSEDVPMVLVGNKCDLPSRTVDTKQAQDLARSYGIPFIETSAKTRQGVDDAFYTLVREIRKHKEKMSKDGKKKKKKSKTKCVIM
Procedure: (§1) Cellular KRAS:RAF Disruption Assay
(§2) Stable cell lines (HEK293 T) were generated to co-express RAF1 and mutant or wild type KRAS, as indicated, using the BiBRET vector (Promega). Engineered cell lines were suspended in media (OptiMEM, […]), plated in 384-well plates (8000 cells/well), and allowed to rest for 1.5 hours. Cells were treated with compounds for 24 hours, and NanoBRET NanoGlo substrate (Promega) was added per the manufacturer's instructions.

KRAS WT = target: T2, KRAS WT (Homo sapiens, UniProt P01116); assay: Cellular KRAS:RAF Disruption Assay (NanoBRET), KRAS WT; type: cell-based; details: HEK293 T cells co-expressing RAF1 and wild type KRAS, 24 hours; read-out: RAS::RAF binding via NanoBRET IC50, KRAS WT
T2 construct: expressed in transfected cells
T2 sequence (P01116 1-188 isoform P01116-2): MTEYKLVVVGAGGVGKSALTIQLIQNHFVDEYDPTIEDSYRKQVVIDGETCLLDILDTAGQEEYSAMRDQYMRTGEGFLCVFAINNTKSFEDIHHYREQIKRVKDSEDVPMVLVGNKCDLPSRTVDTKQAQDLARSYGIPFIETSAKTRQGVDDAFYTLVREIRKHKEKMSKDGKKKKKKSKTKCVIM
Procedure: as §1, §2

KRAS G12A = target: T3, KRAS G12A (Homo sapiens, UniProt P01116, G12A); assay: Cellular KRAS:RAF Disruption Assay (NanoBRET), KRAS G12A; type: cell-based; details: HEK293 T cells co-expressing RAF1 and KRAS G12A, 24 hours; read-out: RAS::RAF binding via NanoBRET IC50, KRAS G12A
T3 construct: expressed in transfected cells
T3 sequence (P01116 1-188 isoform P01116-2 G12A): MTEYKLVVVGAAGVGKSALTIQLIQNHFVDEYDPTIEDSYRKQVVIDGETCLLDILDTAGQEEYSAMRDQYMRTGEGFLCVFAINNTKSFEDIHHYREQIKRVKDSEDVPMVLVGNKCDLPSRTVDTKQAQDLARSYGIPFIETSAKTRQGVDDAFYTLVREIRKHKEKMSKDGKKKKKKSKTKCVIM
Procedure: as §1, §2

KRAS G12C = target: T4, KRAS G12C (Homo sapiens, UniProt P01116, G12C); assay: Cellular KRAS:RAF Disruption Assay (NanoBRET), KRAS G12C; type: cell-based; details: HEK293 T cells co-expressing RAF1 and KRAS G12C, 24 hours; read-out: RAS::RAF binding via NanoBRET IC50, KRAS G12C
T4 construct: expressed in transfected cells
T4 sequence (P01116 1-188 isoform P01116-2 G12C): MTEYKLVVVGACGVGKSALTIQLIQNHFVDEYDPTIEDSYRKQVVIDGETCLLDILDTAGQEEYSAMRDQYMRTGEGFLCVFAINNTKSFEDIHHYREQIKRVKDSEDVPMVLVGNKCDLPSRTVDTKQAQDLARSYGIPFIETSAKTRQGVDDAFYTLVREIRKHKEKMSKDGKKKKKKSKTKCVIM
Procedure: as §1, §2

KRAS G12D [1] = target: T5, KRAS G12D (Homo sapiens, UniProt P01116, G12D); assay: biochemical
T5 sequence (P01116 1-188 isoform P01116-2 G12D): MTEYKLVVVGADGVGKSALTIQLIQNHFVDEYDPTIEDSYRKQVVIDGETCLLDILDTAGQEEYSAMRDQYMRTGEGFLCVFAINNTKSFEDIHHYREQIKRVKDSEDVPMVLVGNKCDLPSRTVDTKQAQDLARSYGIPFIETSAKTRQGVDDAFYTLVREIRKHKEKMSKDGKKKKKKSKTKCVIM

KRAS G12D [2] = target: T5, KRAS G12D; assay: biochemical; remark: listed apart in the source

Row | IC50 (KRAS G12V) [nM] | IC50 (KRAS WT) [nM] | IC50 (KRAS G12A) [nM] | IC50 (KRAS G12C) [nM] | IC50 (KRAS G12D [1]) [nM] | IC50 (KRAS G12D [2]) [nM] | Structure (SMILES)
1 | 197 | 11.9 | 19.5 | 41.6 |  |  | C#Cc1c(F)ccc2cc(O)cc(-c3ncc4c(N5CC6COC(C6)C5)nc(OC[C@@]56CCCN5C[C@H](F)C6)nc4c3F)c12 (stereo partly drawn) [Example 1-90, 4-(2-{[(2R,7aS)-2-fluoro-hexahydro-1H-pyrrolizin-7a-yl]methoxy}-8-fluoro-4-{6-oxa-3-azabicyclo [3.2.1]octan-3-yl}pyrido[4,3-d]pyrimidin-7-yl)-5-ethynyl-6-fluoronaphthalen-2-ol]
2 | 126 | 3 | 12 | 11 |  |  | C#Cc1c(F)ccc2cc(O)cc(-c3ncc4c(N5CCOC6CC65)nc(OC[C@]56CCC[C@H]5N(C)CCC6)nc4c3F)c12 (single isomer, unassigned) [Example 1-99]
3 | 140 | 17.2 | 13.2 | 18.8 |  |  | C#Cc1c(F)ccc2cc(O)cc(-c3ncc4c(N5CCOCC(C)(O)C5)nc(OC[C@]56CCC[C@H]5N(C)CCC6)nc4c3F)c12 (stereo partly drawn) [Example 1-108, 4-(2-{[(4aS,7aR)-1-methyl-octahydro-1H-cyclopenta[b]pyridin-4a-yl]methoxy}-7-(8-ethynyl-7-fluoro-3-hydroxynaphthalen-1-yl)-8-fluoropyrido[4,3-d]pyrimidin-4-yl)-6-methyl-1,4-oxazepan-6-ol]
4 |  |  |  |  | 6600 | < 2 | C#Cc1c(F)ccc2cc(O)cc(-c3ccc4c(N5CC6CCC(C5)N6C(=O)C5CC(F)(F)C5)nc(OC[C@@]56CCCN5C[C@H](F)C6)nc4c3F)c12 [Example 7-4, 4-(2-{[(2R,7aS)-2-fluoro-hexahydro-1H-pyrrolizin-7a-yl]methoxy}-4-[8-(3,3-difluorocyclobutanecarbonyl)-3,8-diazabicyclo[3.2.1]octan-3-yl]-8-fluoroquinazolin-7-yl)-5-ethynyl-6-fluoronaphthalen-2-ol]
5 |  |  |  |  | > 100000 | 19100 | C#Cc1c(F)ccc2cc(O)cc(-c3ncc4c(N5CCCC(C#N)C5)nc(OCC5(CN6CCC(F)CC6)CC5)nc4c3F)c12 (single isomer, unassigned) [Example 1-44, 1-[7-(8-ethynyl-7-fluoro-3-hydroxynaphthalen-1-yl)-8-fluoro-2-({1-[(4-fluoropiperidin-1-yl)methyl]cyclopropyl}methoxy)pyrido [4,3-d]pyrimidin-4-yl]piperidine-3-carbonitrile]
6 | 54.5 |  | 10.5 | 16.6 |  |  | C#Cc1c(F)ccc2cc(O)cc(-c3ncc4c(N5C[C@H]6C[C@@H]5CO6)nc(OC[C@@]56CCCN5C[C@H](F)C6)nc4c3F)c12 [Example 1-37, 4-(2-{[(2R,7aS)-2-fluoro-hexahydro-1H-pyrrolizin-7a-yl]methoxy}-8-fluoro-4-[(1R,4R)-2-oxa-5-azabicyclo[2.2.1]heptan-5-yl]pyrido[4,3-d]pyrimidin-7-yl)-5-ethynyl-6-fluoronaphthalen-2-ol]
7 |  |  |  |  | > 100000 | > 100000 | CN1CCC[C@@]2(COc3nc(N4CCC[C@@](C)(O)C4)c4cnc(-c5cn(C(F)F)c(=O)c6ccc(C(F)(F)F)cc56)c(F)c4n3)CCC[C@@H]12 [Example 10-8, 4-(2-{[(4aS,7aR)-1-methyl-octahydro-1H-cyclopenta[b]pyridin-4a-yl]methoxy}-8-fluoro-4-[(3R)-3-hydroxy-3-methylpiperidin-1-yl]pyrido[4,3-d]pyrimidin-7-yl)-2-(difluoromethyl)-6-(trifluoromethyl)-1,2-dihydroisoquinolin-1-one]
8 |  |  |  |  | 2 | 2 | C#Cc1c(F)ccc2cc(O)cc(-c3ncc4c(N5CCOCC(CC#N)C5)nc(OC[C@]56CCC[C@H]5N(C)CCC6)nc4c3F)c12 (single isomer, unassigned) [Example 1-130]

The remaining lines, values behind:

Row | Structure (SMILES) | IC50 (KRAS G12V) [nM] | IC50 (KRAS WT) [nM] | IC50 (KRAS G12A) [nM] | IC50 (KRAS G12C) [nM] | IC50 (KRAS G12D [1]) [nM] | IC50 (KRAS G12D [2]) [nM]
9 | C#Cc1c(F)ccc2cc(O)cc(-c3ncc4c(N5CCCC(C)(O)C5)nc(OC[C@]56CCC[C@H]5N(C)CCC6)nc4c3F)c12 (single isomer, unassigned) [Example 1-89] | 20.1 | 8.5 | 4.8 | 9.3 |  | 
10 | C#Cc1c(F)ccc2cc(O)cc(-c3ncc4c(N5CCOC6CC65)nc(OC[C@@]56CCCN5C[C@H](F)C6)nc4c3F)c12 (stereo partly drawn) [Example 1-100, 4-(2-{[(2R,7aS)-2-fluoro-hexahydro-1H-pyrrolizin-7a-yl]methoxy}-8-fluoro-4-{2-oxa-5-azabicyclo[4.1.0]heptan-5-yl}pyrido[4,3-d]pyrimidin-7-yl)-5-ethynyl-6-fluoronaphthalen-2-ol] | 118 | 12.3 | 4.6 | 12.9 |  | 
11 | C#Cc1c(F)ccc2cc(O)cc(-c3ncc4c(N5C[C@@H](C)O[C@@H](C)C5)nc(OC[C@]56CCC[C@H]5N(C)CCC6)nc4c3F)c12 [Example 1-12, 4-(2-{[(4aS,7aR)-1-methyl-octahydro-1H-cyclopenta[b]pyridin-4a-yl]methoxy}-4-[(2R,6S)-2,6-dimethylmorpholin-4-yl]-8-fluoropyrido[4,3-d]pyrimidin-7-yl)-5-ethynyl-6-fluoronaphthalen-2-ol] |  |  |  |  | 1000 | < 2
12 | CN1CCC[C@@]2(COc3nc(N4CCC[C@@](C)(O)C4)c4cnc(-c5cnc(OC(F)F)c6ccccc56)c(F)c4n3)CCC[C@@H]12 [Example 10-7, (3R)-1-(2-{[(4aS,7aR)-1-methyl-octahydro-1H-cyclopenta[b]pyridin-4a-yl]methoxy}-7-[1-(difluoromethoxy)isoquinolin-4-yl]-8-fluoropyrido[4,3-d]pyrimidin-4-yl)-3-methylpiperidin-3-ol] |  |  |  |  | > 100000 | > 100000
13 | CN1CCC[C@@]2(COc3nc(N4CCC[C@@](C)(O)C4)c4cnc(-c5cn(C(F)F)c(=O)c6ccccc56)c(F)c4n3)CCC[C@@H]12 [Example 10-6, 4-(2-{[(4aS,7aR)-1-methyl-octahydro-1H-cyclopenta[b]pyridin-4a-yl]methoxy}-8-fluro-4-[(3R)-3-hydroxy-3-methylpiperidin-1-yl]pyrido[4,3-d]pyrimidin-7-yl)-2-(difluoromethyl)-1,2-dihydroisoquinolin-1-one] |  |  |  |  | > 100000 | > 100000
14 | CN1CCC[C@@]2(COc3nc(N4CCC[C@@](C)(O)C4)c4cnc(-c5cc(O)ccc5C5CCC5)c(F)c4n3)CCC[C@@H]12 [Example 10-3, (3R)-1-(2-{[(4aS,7aR)-1-methyl-octahydro-1H-cyclopenta[b]pyridin-4a-yl]methoxy}-7-(2-cyclobutyl-5-hydroxyphenyl)-8-fluoropyrido[4,3-d]pyrimidin-4-yl)-3-methylpiperidin-3-ol] |  |  |  |  | 1060 | < 2
15 | C#Cc1c(F)ccc2cc(O)cc(-c3ccc4c(N5C[C@@H]6C[C@H]5C(=O)N6)nc(OC[C@]56CCC[C@H]5N(C)CCC6)nc4c3F)c12 [Example 5-1, (1S,4S)-5-(2-{[(4aS,7aR)-1-methyl-octahydro-1H-cyclopenta[b]pyridin-4a-yl]methoxy}-7-(8-ethynyl-7-fluoro-3-hydroxynaphthalen-1-yl)-8-fluoroquinazolin-4-yl)-2,5-diazabicyclo[2.2.1]heptan-3-one] | 2510 | 238 | 881 | 826 |  | 
16 | C#Cc1c(F)ccc2cc(O)cc(-c3ccc4c(N5CCCC(C)(O)C5)nc(OC[C@]56CCC[C@H]5N(C)CCC6)nc4c3F)c12 (stereo partly drawn) [Example 2-72, 1-(2-{[(4aS,7aR)-1-methyl-octahydro-1H-cyclopenta[b]pyridin-4a-yl]methoxy}-7-(8-ethynyl-7-fluoro-3-hydroxynaphthalen-1-yl)-8-fluoroquinazolin-4-yl)-3-methylpiperidin-3-ol] | 40.5 | 3.6 | 9 | 12.8 |  | 
17 | C#Cc1c(F)ccc2cc(O)cc(-c3ncc4c(N5CCOCC(F)(F)C5)nc(OC[C@]56CCC[C@H]5N(C)CCC6)nc4c3F)c12 [Example 1-107, 4-(2-{[(4aS,7aR)-1-methyl-octahydro-1H-cyclopenta[b]pyridin-4a-yl]methoxy}-4-(6,6-difluoro-1,4-oxazepan-4-yl)-8-fluoropyrido[4,3-d]pyrimidin-7-yl)-5-ethynyl-6-fluoronaphthalen-2-ol] | 133 | 9.7 | 5.3 | 9.8 |  | 
